This assay addresses T1, human GPR119 (Homo sapiens, UniProt Q8TDV5).
T1 construct: expressed in transfected cells
T1 sequence (Q8TDV5 1-335): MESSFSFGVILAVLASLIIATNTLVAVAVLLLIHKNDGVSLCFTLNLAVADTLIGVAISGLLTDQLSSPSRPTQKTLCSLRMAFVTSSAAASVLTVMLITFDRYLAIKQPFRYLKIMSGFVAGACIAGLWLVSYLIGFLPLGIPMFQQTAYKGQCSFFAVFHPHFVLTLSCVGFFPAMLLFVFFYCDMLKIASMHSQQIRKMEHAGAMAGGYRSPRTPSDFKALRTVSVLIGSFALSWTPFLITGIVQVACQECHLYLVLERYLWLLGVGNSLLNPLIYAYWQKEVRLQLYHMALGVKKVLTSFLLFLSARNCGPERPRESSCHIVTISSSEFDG
Nature of the assay: Human GPR119 agonist activity with increase of intracellular cAMP concentration as index (CRE-luciferase reporter assay in hGPR119/CRE-luc/CHO(dhfr-) cells). Conditions: 1 μM test compound, 2 hr incubation; luciferase activity with 10 μM N-[4-(methylsulfonyl)phenyl]-5-nitro-6-{4-[4-(trifluoromethoxy)phenoxy]piperidin-1-yl}pyrimidin-4-amine = 100%, DMSO = 0%. It is filed as cell-based. On the procedure:
Evaluation of Human GPR119 Agonist Activity with Increase of Intracellular Camp Concentration as Index
(1) Construction of Expression Plasmid of Human GPR119 Gene
Using High Fidelity RNA PCR Kit (Takara Bio Inc.), human GPR119 gene was cloned by PCR using cDNA library synthesized from human brain mRNA (Clontech) as a template and synthetic DNA having the following sequence. Primer 1 and Primer 2 were is prepared by adding cleavage sites for Sal I and Nhe I based on the base sequence information of human GPR119 gene.
PCR was performed using Pyrobest DNA polymerase (Takara Bio Inc.). The obtained PCR product was cloned to pUC118 (Takara Bio Inc.), and the base sequence was […] and digested with restriction enzymes Sal I, Nhe I. The obtained DNA fragment was inserted into an animal cell expression vector pAKKO-111H (plasmid same as pAKKO-1.111H described in Biochem. Biophys. Acta, Hinuma, S. et al., 1219, 251-259 (1994)) similarly digested with Sal I, Nhe I, whereby an expression plasmid pAKKO-111H/hGPR119 was prepared.
(2) Construction of Reporter Plasmid
Zeocin resistance gene was cloned by PCR using plasmid pcDNA3.1/Zeo (Invitrogen) as a template, synthetic DNA having the following sequences wherein cleavage sites for restriction enzymes Sal I and BamH I are added to before and after a region containing SV40 Ori and a region containing SV40pA, which are located at the upstream and downstream of Zeocin resistance gene of this plasmid, as a primer set, and KOD polymerase (TOYOBO).
The obtained PCR product was inserted into pCR-BluntII (Invitrogen). A fragment containing a Zeocine resistance gene obtained by digesting the plasmid with restriction enzymes Sal I and BamH I was inserted into plasmid pGL3(R2.2)-Basic Vector (promega) similarly digested with Sal I and Bam HI to give Zeocin resistance plasmid pGL3(R2.2)/Zeocin-Basic Vector.
A reporter plasmid containing 4 cAMP responsive elements (CRE) connected in tandem was prepared using the following 5′-terminal phosphorylated synthetic DNA.
First, a DNA fragment containing a CRE sequence obtained by annealing CRE-Upper and CRE-Lower and elongating with KOD polymerase was inserted into pCR-BluntII to give pCR-BluntII-CRE. A fragment cleaved from pCR-BluntII-CRE with restriction enzymes Kpn I and Hind III was inserted into pGL3(R2.2)/Zeocin-Basic Vector similarly digested with Kpn I and Hind III to give reporter plasmid pGL3(R2.2)/Zeocin-CRE-luc.
(3) Introduction of Human GPR119 Gene and Reporter Gene into CHO(dhfr-) Cells and Acquirement of Expressing Cell
CHO(dhfr-) cells in MEMα (minimum essential medium alpha) (Nikken bio medical laboratory) medium containing 10% fetal bovine serum, 100 U/mL penicillin and 100 μg/mL streptomycin (Invitrogen) were detached by a treatment with trypsin-EDTA (ethylenediaminetetraacetic acid) (Invitrogen), the cells were washed with PBS (Phosphate-buffered saline), centrifuged (1000 rpm, 5 min) and suspended in PBS at a cell density of 1×10^7 cells/mL. Then, DNA was introduced into the cell by a gene pulser (Bio-Rad) under the following conditions. That is, 1×10^7 cells, plasmid pGL3(R2.2)/Zeocin-CRE-luc (15 μg), which was obtained in (2) and linearized with BssH II, and pAKKO-111H (5 μg) were added in a 0.4 cm gap cuvette, and the mixture was electroporated at voltage […], capacitance 950 μF. The cells were placed in the above-mentioned medium, cultured for 24 hr, and the cells were detached and centrifuged. The cells were diluted to 250 cells/well, plated in a 96 well plate (Corning) and cultivated in a CO2 incubator at 37° C. to give a transformant. Then, forskolin was added to the obtained transformant and a strain (CRE-luc/CHO(dhfr-) cell) that induces luciferase expression was selected. […]
A general note: Reporter assays use an easily measured gene product as a stand-in for the process of interest.
In the case of `CC(C)(C)OC(=O)N1CCC(n2ccc3c(N4CCc5cc(S(C)(=O)=O)ccc54)ncnc32)CC1` [Example 1, tert-butyl 4-{4-[5-(methylsulfonyl)-2,3-dihydro-1H-indol-1-yl]-7H-pyrrolo[2,3-d]pyrimidin-7-yl}piperidine-1-carboxylate], the “GPR119 agonist activity (%) at 1 μM concentration” value (from here on “GPR119 agonist activity (%)”) is 62%. The value for `CC(C)(C)OC(=O)N1CCC(n2ccc3c(N4CCc5cc(S(C)(=O)=O)ccc54)ccnc32)CC1` [Example 3, tert-butyl 4-{4-[5-(methylsulfonyl)-2,3-dihydro-1H-indol-1-yl]-1H-pyrrolo[2,3-b]pyridin-1-yl}piperidine-1-carboxylate] was 87%; that for `CN(CCO)C(=O)c1ccc2c(c1)CCN2c1cc(OC2CCN(C(=O)OC(C)(C)C)CC2)ncn1` [Example 20, tert-butyl 4-[(6-{5-[(2-hydroxyethyl)(methyl)carbamoyl]-2,3-dihydro-1H-indol-1-yl}pyrimidin-4-yl)oxy]piperidine-1-carboxylate] was 88%; that for `COCCN(C)C(=O)c1ccc2c(c1)CCN2c1cc(OC2CCN(c3nc(C(C)C)no3)CC2)ncn1` [Example 31, N-(2-methoxyethyl)-N-methyl-1-[6-({1-[3-(1-methylethyl)-1,2,4-oxadiazol-5-yl]piperidin-4-yl}oxy)pyrimidin-4-yl]-2,3-dihydro-1H-indole-5-carboxamide] was 80%. The value for `CC(C)(C)SC(=O)N1CCC(Oc2cc(N3CCc4cc(S(C)(=O)=O)ccc43)ncn2)CC1` [Example 36, S-tert-butyl 4-({6-[5-(methylsulfonyl)-2,3-dihydro-1H-indol-1-yl]pyrimidin-4-yl}oxy)piperidine-1-carbothioate] was 87%; that for `CC(C)SC(=O)N1CCC(Oc2cc(N3CCc4cc(NC(=O)CO)ccc43)ncn2)CC1` [Example 54, S-(1-methylethyl) 4-[(6-{5-[(hydroxyacetyl)amino]-2,3-dihydro-1H-indol-1-yl}pyrimidin-4-yl)oxy]piperidine-1-carbothioate] was 82%; that for `CCc1cnc(N2CCC(Oc3cc(N4CCc5cc(NC(=O)CO)ccc54)ncn3)CC2)nc1` [Example 56, N-[1-(6-{[1-(5-ethylpyrimidin-2-yl)piperidin-4-yl]oxy}pyrimidin-4-yl)-2,3-dihydro-1H-indol-5-yl]-2-hydroxyacetamide] was 75%.

`CCc1cnc(N2CCC(Oc3cc(N4CCc5cc(C(=O)N(C)CCO)ccc54)ncn3)CC2)nc1` [Example 21, 1-(6-{[1-(5-ethylpyrimidin-2-yl)piperidin-4-yl]oxy}pyrimidin-4-yl)-N-(2-hydroxyethyl)-N-methyl-2,3-dihydro-1H-indole-5-carboxamide]: the “GPR119 agonist activity (%)” value is recorded as 80%.

In the case of `CCc1cnc(N2CCC(N(c3cc(N4CCc5cc(S(C)(=O)=O)ccc54)ncn3)C(F)(F)F)CC2)nc1` [Example 69, N-[1-(5-ethylpyrimidin-2-yl)piperidin-4-yl]-6-[5-(methylsulfonyl)-2,3-dihydro-1H-indol-1-yl]-N-(trifluoromethyl)pyrimidin-4-amine], the “GPR119 agonist activity (%)” value amounted to 98%. As to `CC(C)OC(=O)N1CCC(Oc2cc(N3CCc4cc(S(C)(=O)=O)ccc43)ncn2)CC1` [Example 18, 1-methylethyl 4-({6-[5-(methylsulfonyl)-2,3-dihydro-1H-indol-1-yl]pyrimidin-4-yl}oxy)piperidine-1-carboxylate], the “GPR119 agonist activity (%)” value was determined as 74%. For `CC(C)(C)OC(=O)N1CCCC(n2ccc3c(N4CCc5cc(S(C)(=O)=O)ccc54)ncnc32)CC1` (stereo not shown) [Example 16, tert-butyl 4-{4-[5-(methylsulfonyl)-2,3-dihydro-1H-indol-1-yl]-7H-pyrrolo[2,3-d]pyrimidin-7-yl}azepane-1-carboxylate] the value was 77%; for `CC(C)c1noc(N2CCC(Oc3cc(N4CCc5cc(C(=O)N(C)CCO)ccc54)ncn3)CC2)n1` [Example 30, N-(2-hydroxyethyl)-N-methyl-1-[6-({1-[3-(1-methylethyl)-1,2,4-oxadiazol-5-yl]piperidin-4-yl}oxy)pyrimidin-4-yl]-2,3-dihydro-1H-indole-5-carboxamide], 78%. As to `CC(C)SC(=O)N1CCC(Oc2cc(N3CCc4cc(S(C)(=O)=O)cc(F)c43)ncn2)CC1` [Example 62, S-(1-methylethyl) 4-({6-[7-fluoro-5-(methylsulfonyl)-2,3-dihydro-1H-indol-1-yl]pyrimidin-4-yl}oxy)piperidine-1-carbothioate], the “GPR119 agonist activity (%)” value is 83%.

`CC(C)c1noc(N2CCC(Oc3cc(N4CCc5cc(S(C)(=O)=O)cc(F)c54)ncn3)CC2)n1` [Example 64, 7-fluoro-1-[6-({1-[3-(1-methylethyl)-1,2,4-oxadiazol-5-yl]piperidin-4-yl}oxy)pyrimidin-4-yl]-5-(methylsulfonyl)-2,3-dihydro-1H-indole]: the “GPR119 agonist activity (%)” value was 77%. On to `Cc1cnc(N2CCC(N(c3cc(N4CCc5cc(S(C)(=O)=O)ccc54)ncn3)C(F)(F)F)CC2)nc1` [Example 73, N-[1-(5-methylpyrimidin-2-yl)piperidin-4-yl]-6-[5-(methylsulfonyl)-2,3-dihydro-1H-indol-1-yl]-N-(trifluoromethyl)pyrimidin-4-amine], for which the “GPR119 agonist activity (%)” value was 88%. The value for `CC(C)(C)OC(=O)N1CCC(Cn2ccc3c(N4CCc5cc(S(C)(=O)=O)ccc54)ncnc32)C1` (stereo in doubt) [Example 12, tert-butyl (3S)-3-({4-[5-(methylsulfonyl)-2,3-dihydro-1H-indol-1-yl]-7H-pyrrolo[2,3-d]pyrimidin-7-yl}methyl)pyrrolidine-1-carboxylate] was 84%. The value for `CC(C)OC(=O)N1CCC(n2ccc3c(N4CCc5cc(N6CCCC6=O)ccc54)ncnc32)CC1` [Example 10, 1-methylethyl 4-{4-[5-(2-oxopyrrolidin-1-yl)-2,3-dihydro-1H-indol-1-yl]-7H-pyrrolo[2,3-d]pyrimidin-7-yl}piperidine-1-carboxylate] was 93%; that for `CC(C)SC(=O)N1CCC(Oc2cc(N3CCc4cc(N5CCCC5=O)ccc43)ncn2)CC1` [Example 45, S-(1-methylethyl) 4-({6-[5-(2-oxopyrrolidin-1-yl)-2,3-dihydro-1H-indol-1-yl]pyrimidin-4-yl}oxy)piperidine-1-carbothioate] was 75%.

As to `COc1cnc(N2CCC(N(c3cc(N4CCc5cc(S(C)(=O)=O)ccc54)ncn3)C(F)(F)F)CC2)nc1` [Example 72, N-[1-(5-methoxypyrimidin-2-yl)piperidin-4-yl]-6-[5-(methylsulfonyl)-2,3-dihydro-1H-indol-1-yl]-N-(trifluoromethyl)pyrimidin-4-amine], the “GPR119 agonist activity (%)” value came out at 77%.

The values above are taken from patent US8410089B2, “Fused heterocyclic ring compound” (Takeda Pharmaceutical Company Limited, priority 2009, dated 2013).
